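Test compounds were applied to cells in 96-well plates for 48 hours at 5 doses. At the GI50, growth is halved. TGI: concentration producing complete growth inhibition.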
Tests used:
Test in all cases: growth of human tumour cells (NCI), 48 h
M19-MEL melanoma = system: M19-MEL melanoma
DMS 273 small cell lung = system: DMS 273 small cell lung
SNB-78 CNS = system: SNB-78 CNS
KM20L2 colon = system: KM20L2 colon
PC-3 prostate = system: PC-3 prostate
BT-549 breast = system: BT-549 breast
DMS 114 small cell lung = system: DMS 114 small cell lung
MDA-MB-435 = system: MDA-MB-435
MDA-MB-231 breast = system: MDA-MB-231 breast
T-47D breast = system: T-47D breast

N[C@@H]1CCCC[C@@H]1N.O=P([O-])([O-])CN(CP(=O)([O-])[O-])CP(=O)([O-])[O-].[Pt+2]
GI50 (M19-MEL melanoma): > 100 µM | TGI (M19-MEL melanoma): > 100 µM | GI50 (DMS 273 small cell lung): > 100 µM | TGI (DMS 273 small cell lung): > 100 µM | GI50 (SNB-78 CNS): > 100 µM | TGI (SNB-78 CNS): > 100 µM | GI50 (KM20L2 colon): > 100 µM | TGI (KM20L2 colon): > 100 µM

CCSC(SCC)=C1C(=O)N(c2ccccc2)N=C1C
TGI (M19-MEL melanoma): 1.83 µM | TGI (DMS 273 small cell lung): 32 µM | TGI (SNB-78 CNS): 46.3 µM | TGI (KM20L2 colon): 30.5 µM

COc1ccccc1NC(=O)C(CC(C(=O)Nc1ccccc1OC)/C(C)=N/Nc1ccc([N+](=O)[O-])cc1[N+](=O)[O-])/C(C)=N/Nc1ccc([N+](=O)[O-])cc1[N+](=O)[O-] (centres undefined)
TGI (M19-MEL melanoma): > 100 µM | TGI (DMS 273 small cell lung): > 100 µM | TGI (SNB-78 CNS): > 100 µM | TGI (KM20L2 colon): > 100 µM

CCN(CC)CCN(C(=O)C(C)(C)C)c1ccccc1N
TGI (PC-3 prostate): > 100 µM | TGI (BT-549 breast): > 100 µM

CCOC(=O)C(NC(=O)c1[nH]cnc1/N=N/N(C)C)C(C)C (centres undefined)
TGI (DMS 114 small cell lung): > 100 µM | TGI (M19-MEL melanoma): > 100 µM | TGI (DMS 273 small cell lung): > 100 µM

COc1nc(NC2OC(COC(C)=O)C(OC(C)=O)C(OC(C)=O)C2OC(C)=O)c(-c2csc(N)n2)c(=O)n1C (centres undefined)
TGI (DMS 114 small cell lung): > 100 µM | TGI (M19-MEL melanoma): > 100 µM | TGI (SNB-78 CNS): > 100 µM | TGI (KM20L2 colon): > 100 µM

CC1(C)OC2C(COS(N)(=O)=O)SC(n3cnc4cncnc43)C2O1 (centres undefined)
GI50 (MDA-MB-435): > 100 µM | TGI (MDA-MB-435): > 100 µM | GI50 (MDA-MB-231 breast): > 100 µM | TGI (MDA-MB-231 breast): > 100 µM | GI50 (PC-3 prostate): > 100 µM | TGI (PC-3 prostate): > 100 µM | GI50 (T-47D breast): > 100 µM | TGI (T-47D breast): > 100 µM | GI50 (BT-549 breast): > 100 µM | TGI (BT-549 breast): > 100 µM

O=C1CN(/N=C/c2ccc(-c3ccc(F)cc3)o2)C(=O)N1
TGI (MDA-MB-435): 41.1 µM | TGI (MDA-MB-231 breast): > 100 µM | TGI (PC-3 prostate): > 100 µM | TGI (T-47D breast): > 100 µM

CC(NC(=O)c1ccccc1)(C(=O)O)C(=O)O
TGI (MDA-MB-435): > 100 µM | TGI (MDA-MB-231 breast): > 100 µM | TGI (PC-3 prostate): > 100 µM | TGI (T-47D breast): > 100 µM | TGI (BT-549 breast): > 100 µM

CNC(=O)CN(CC(N)=O)C(N)=O
TGI (M19-MEL melanoma): > 100 µM | TGI (DMS 273 small cell lung): > 100 µM | TGI (SNB-78 CNS): > 100 µM | TGI (KM20L2 colon): > 100 µM

O=c1cc(-c2ccccn2)[nH]c2ccc(Cl)cc12
GI50 (DMS 114 small cell lung): 13.9 µM | TGI (DMS 114 small cell lung): 49 µM | TGI (M19-MEL melanoma): > 100 µM | TGI (SNB-78 CNS): > 100 µM | GI50 (KM20L2 colon): 40 µM | TGI (KM20L2 colon): > 100 µM

CCCCCCCCCCCCCc1nn[nH]n1
TGI (DMS 114 small cell lung): 38.4 µM | TGI (M19-MEL melanoma): 36.8 µM | TGI (SNB-78 CNS): 43.6 µM | TGI (KM20L2 colon): 37.4 µM

Oc1[nH]c2cc(Cl)ccc2c1/C=c1/ccc2c(c1)N=C(c1cc(F)cc(F)c1)N=2
GI50 (MDA-MB-435): 0.57 µM | TGI (MDA-MB-435): 2.38 µM | GI50 (MDA-MB-231 breast): 2.78 µM | TGI (MDA-MB-231 breast): 12.3 µM | GI50 (PC-3 prostate): 2.12 µM | TGI (PC-3 prostate): 8.5 µM | GI50 (T-47D breast): 4.27 µM | TGI (T-47D breast): 17.7 µM | GI50 (BT-549 breast): 2.1 µM | TGI (BT-549 breast): 10 µM

CCOc1cc(-c2ccc[nH]2)[nH]c1/C=C1\N=C(C)C(C(=O)OC)=C1C
GI50 (MDA-MB-435): 0.0325 µM | TGI (MDA-MB-435): 1.05 µM | GI50 (MDA-MB-231 breast): 0.0171 µM | TGI (MDA-MB-231 breast): 0.279 µM | GI50 (PC-3 prostate): 0.0357 µM | TGI (PC-3 prostate): 2.13 µM | GI50 (T-47D breast): 0.0311 µM | TGI (T-47D breast): 0.367 µM | GI50 (BT-549 breast): 0.0451 µM | TGI (BT-549 breast): 1.92 µM

CC(=O)N(Cc1ccccc1)c1ccccc1I(=O)=O
GI50 (MDA-MB-435): 49.9 µM | TGI (MDA-MB-435): > 100 µM | GI50 (MDA-MB-231 breast): 50.4 µM | TGI (MDA-MB-231 breast): > 100 µM | GI50 (T-47D breast): 36.1 µM | TGI (T-47D breast): > 100 µM | GI50 (BT-549 breast): > 100 µM | TGI (BT-549 breast): > 100 µM

CC(=O)Oc1ccc(/C=N/NC(N)=S)nc1
GI50 (MDA-MB-435): 5.14 µM | TGI (MDA-MB-435): > 100 µM | GI50 (MDA-MB-231 breast): 11.2 µM | TGI (MDA-MB-231 breast): > 100 µM | GI50 (PC-3 prostate): 5.28 µM | TGI (PC-3 prostate): > 100 µM | GI50 (T-47D breast): 5.39 µM | TGI (T-47D breast): > 100 µM | GI50 (BT-549 breast): 3.4 µM | TGI (BT-549 breast): 68.9 µM

COc1cnc2cc(C(=O)O)c3ccccc3c2c1
TGI (MDA-MB-435): > 100 µM | TGI (MDA-MB-231 breast): > 100 µM | TGI (PC-3 prostate): > 100 µM | TGI (T-47D breast): > 100 µM

CC1(C)CC[C@]2(C(N)=O)CC[C@]3(C)C(=CC[C@@H]4[C@@]5(C)C/C(=C/c6ccncc6)C(=O)C(C)(C)[C@@H]5CC[C@]43C)[C@@H]2C1
GI50 (MDA-MB-231 breast): 1.86 µM | TGI (MDA-MB-231 breast): 4.15 µM | GI50 (PC-3 prostate): 1.37 µM | TGI (PC-3 prostate): 3.51 µM | GI50 (T-47D breast): 2.55 µM | TGI (T-47D breast): 12.4 µM

CN1CCN(c2nc(-c3ccncc3)nc3sc4c(c23)CCCCCC4)CC1
GI50 (MDA-MB-435): 11.8 µM | TGI (MDA-MB-435): 26 µM | GI50 (MDA-MB-231 breast): 4.26 µM | TGI (MDA-MB-231 breast): 18.7 µM | GI50 (PC-3 prostate): 4.71 µM | TGI (PC-3 prostate): 18.2 µM | GI50 (T-47D breast): 13.5 µM | TGI (T-47D breast): 29.3 µM | GI50 (BT-549 breast): 6.35 µM | TGI (BT-549 breast): 19.9 µM

O=c1c2ccccc2oc2ccc(OCCCCCCN3CCCCCC3)cc12
GI50 (MDA-MB-435): 2.53 µM | TGI (MDA-MB-435): 8.75 µM | GI50 (MDA-MB-231 breast): 4.19 µM | TGI (MDA-MB-231 breast): 13 µM | GI50 (PC-3 prostate): 3.17 µM | TGI (PC-3 prostate): 13.2 µM | GI50 (T-47D breast): 2.26 µM | TGI (T-47D breast): 8.52 µM | GI50 (BT-549 breast): 1.7 µM | TGI (BT-549 breast): 5.3 µM

Cc1c(C(=O)CSc2nc3ccccc3[nH]2)c(=O)n(-c2ccccc2)n1C
TGI (M19-MEL melanoma): > 100 µM | TGI (DMS 273 small cell lung): > 100 µM | TGI (SNB-78 CNS): > 100 µM | TGI (KM20L2 colon): > 100 µM

COc1cccc(/C=C/C(=O)c2cc3c(N)c(C(=O)Nc4cccc5ccccc45)sc3nc2C)c1
GI50 (MDA-MB-231 breast): 1.22 µM | TGI (MDA-MB-231 breast): 3.26 µM | GI50 (PC-3 prostate): 1.48 µM | TGI (PC-3 prostate): 6.22 µM | GI50 (T-47D breast): 1.22 µM | TGI (T-47D breast): 4.45 µM | GI50 (BT-549 breast): 1.2 µM | TGI (BT-549 breast): 3.88 µM

O=C(Cc1ccccc1)NN1C(=O)/C(=C\c2ccc(O)cc2)SC1=Nc1ccccc1
TGI (MDA-MB-435): > 100 µM | TGI (MDA-MB-231 breast): > 100 µM | TGI (T-47D breast): > 100 µM | TGI (BT-549 breast): > 100 µM

CCC1CNC(=O)CC1CC(=O)OC (centres undefined)
TGI (DMS 114 small cell lung): > 100 µM | TGI (SNB-78 CNS): > 100 µM | TGI (KM20L2 colon): > 100 µM

O=c1[nH]c2ccccc2n1-c1n[nH]c2ccccc12
GI50 (MDA-MB-435): 23.7 µM | TGI (MDA-MB-435): 57.4 µM | GI50 (MDA-MB-231 breast): 22.9 µM | TGI (MDA-MB-231 breast): > 100 µM | GI50 (PC-3 prostate): 18.1 µM | TGI (PC-3 prostate): > 100 µM | GI50 (T-47D breast): 29.5 µM | TGI (T-47D breast): 98.2 µM | GI50 (BT-549 breast): 30.5 µM | TGI (BT-549 breast): > 100 µM

O=C(Cc1csc2nc(-c3ccc(Br)cc3)cn12)N/N=C/c1ccc(O)cc1
GI50 (MDA-MB-435): 6.27 µM | TGI (MDA-MB-435): 24.3 µM | GI50 (MDA-MB-231 breast): 10.4 µM | TGI (MDA-MB-231 breast): 43.2 µM | TGI (PC-3 prostate): 23.7 µM | GI50 (T-47D breast): 31.8 µM | TGI (T-47D breast): > 100 µM | GI50 (BT-549 breast): 13.4 µM | TGI (BT-549 breast): 56.5 µM

Cc1cc(Cl)ccc1Nc1nc(C(F)(F)F)ccc1C(=O)N1CCN(c2cccc(Cl)c2)CC1
GI50 (MDA-MB-435): > 100 µM | TGI (MDA-MB-435): > 100 µM | GI50 (MDA-MB-231 breast): 11 µM | TGI (MDA-MB-231 breast): > 100 µM | GI50 (PC-3 prostate): 7.56 µM | TGI (PC-3 prostate): > 100 µM | GI50 (T-47D breast): > 100 µM | TGI (T-47D breast): > 100 µM | GI50 (BT-549 breast): > 100 µM | TGI (BT-549 breast): > 100 µM

C#CCN(Cc1ccc2nc(N)[nH]c(=O)c2c1)c1ccc(C(=O)NC(CCC(=O)O)C(=O)O)cc1 (centres undefined)
TGI (MDA-MB-435): > 100 µM | TGI (MDA-MB-231 breast): > 100 µM | TGI (PC-3 prostate): > 100 µM | TGI (T-47D breast): > 100 µM | TGI (BT-549 breast): > 100 µM
